# Experimental data from PMC8291071, “Tertiary sulphonamide derivatives as dual acting small molecules that inhibit LSD1 and suppress tubulin polymerisation against liver cancer” (Journal of Enzyme Inhibition and Medicinal Chemistry, 2021).
# Entries after “also recorded” stand apart in the source; their conditions may differ.
# Key:
# [1] = tested on: SNU-475; experiment: MTT antiproliferative assay, SNU-475 cells; type: cell-based; conditions: Homo sapiens, 48 h
# [2] = tested on: Bel-7402; experiment: MTT antiproliferative assay, Bel-7402 cells; type: cell-based; conditions: Homo sapiens, 48 h
# Protocol: (§1) Cell lines were purchased from Servicebio (Wuhan, China) and cultured in RPMI1640 (Servicebio, Wuhan, China) with 10% foetal bovine serum and 1% antibiotic agent (Servicebio, Wuhan, China) at 37 °C. With the treatment of synthetic compounds, cells were cultured for 48 h and added with MTT solution (Servicebio, Wuhan, China). After 4 h, medium was removed and DMSO was added to culture for 30 min. Finally, the absorbance value was obtained by a microplate reader (Multiskan Sky, Thermo Fisher, Shanghai, China).
# (§2) In order to discover the potent anti-liver cancer agents, all tertiary sulphonamide analogues were evaluated for their anticancer activity in vitro against liver cancer cell lines ([…], HepG-2 and Bel-7402). Cell lines were treat with different tertiary sulphonamide derivatives 16 and 17a∼17f for 48 h to obtain IC50 values. In this work, 5-fluorouracil as an well-known antitumor drug was selected as the control agent.
# [3] = tested on: HepG-2; experiment: MTT antiproliferative assay, HepG-2 cells; type: cell-based; conditions: for IC50: Homo sapiens, HepG2, 48 h, MTT
# Protocol: as §1, §2
# [4] = tested on: L-02 cells; experiment: Cytotoxicity against normal liver cell line L-02; type: cell-based
# Protocol: as §1
# [5] = tested on: interphase microtubules in Bel-7402 cells; experiment: Immunofluorescence of interphase microtubules in Bel-7402 cells; type: cell-based; conditions: 50 nM
# Protocol: Liver cancer Bel-7402 cells were cultured on the slices for 24 h and treated with tertiary sulphonamide derivatives for 48 h. Then, Bel-7402 cells were fixed by 4% paraformaldehyde solution (Shanghai Yuanye Bio-Technology Co., Ltd, Shanghai, China) for 30 min. Bovine albumin was used to block the system for 30 min. Bel-7402 cells were cultured with β-tubulin and incubated for 24 h at 4 °C. Finally, 4′,6-diamidino-2-phenylindole (DAPI) was added in a dark room to obtain images of immunostaining (Confocal laser scanning microscope, FV3000RS, Beijing, China).
# [6] = tested on: Bel-7402&shControl cells; experiment: Cell viability of control Bel-7402 cells; type: cell-based
# [7] = tested on: H3K9me1/2 in Bel-7402 cells; experiment: Western blot of H3K9me1 and H3K9me2 in Bel-7402 cells; type: cell-based; conditions: 48 h
# Protocol: Liver cancer Bel-7402 cells were cultured for 24 h and treated with tertiary sulphonamide derivative 17a for 48 h at 37 °C. Protein lysates were harvested from the treated Bel-7402 cells. Nitrocellulose membrane was used to perform polyacrylamide gelelectrophoresis. H3K9me1 and H3K9me2 (Servicebio, Wuhan, China) were treated with the nitrocellulose membrane at 4 °C for 12 h. GAPDH as the secondary antibody was incubated for 1 h at room temperature (Shanghai Yuanye Bio-Technology Co., Ltd, Shanghai, China).
# (§3) LSD1 could specifically demethylate mono- and dimethyl-lysine on histone H3 H3K9me1/2), leading to the transcriptional repression or activation of target genes. Thus, the expression levels of H3K9me1/2 in liver cancer Bel-7402 cells were explored with the treatment of 17a. […] The migration effects of tertiary sulphonamide derivative 17a were also investigated.
# [8] = tested on: Bel-7402 cells; experiment: Transwell migration assay; type: cell-based; conditions: 48 h
# Protocol: Liver cancer Bel-7402 cells were cultured in the upper chambers of a Transwell 24-well plate (Servicebio, Wuhan, China) for 24 h. 1% FBS and 20% FBS were added into the upper chambers and lower chambers respectively. […] Then, all medium was removed and Bel-7402 cells were fixed with ethanol for 30 min. Finally, Bel-7402 cells from the upper chambers were stained with haematoxylin solution (Servicebio, Wuhan, China) for 30 min.
# as §3
# [9] = tested on: Bel-7402 xenograft; experiment: Bel-7402 xenograft antitumour study; conditions: 60 mg/kg, intragastric administration, 21 days
# Protocol: (§4) Xenograft models using Bel-7402 cells was established in nude mice (Jiangsu ALF Biotechnology Co., LTD, Jiangsu, China). Then, mice-bearing tumours were divided into two groups (vehicle and 60 mg/kg group). […] Tumour volume and tumour weight of treated mice were measured.
# (§5) Xenograft tumours were produced by the subcutaneous implantation of liver cancer Bel-7402 cells.
# [10] = tested on: heart, liver, spleen, lung and kidney; experiment: Haematoxylin & eosin staining of organs of treated mice; conditions: 60 mg/kg, intragastric, 21 days, H&E staining
# Protocol: as §4, §5
# [11] = tested on: tubulin; experiment: Inhibitory activity of tubulin polymerisation in vitro; type: biochemical; conditions: fluorescence intensity
# [12] = biological target: LSD1 (Homo sapiens, UniProt O60341); experiment: LSD1 enzymatic assay; conditions: for inhibition at 0.2 µM: read-out: inhibitory rate against LSD1
Structure (SMILES),IC50 [1],IC50 [2],IC50 [3],melting point,cytotoxicity against L-02 cells [4],depolymerisation of interphase microtubules [5],cell viability of Bel-7402&shControl cells [6],expression levels of H3K9me1 and H3K9me2 [7],migration of Bel-7402 cells [8],reduction of tumour weight [9],tumour growth [9],"toxicity of organs (heart, liver, spleen, lung and kidney) [10]",fold activity increase against HepG-2 cells ([3]; 17b VS. 17c),IC50 [11],IC50 [12],fold activity loss against LSD1 ([12]; methyl group replaced with acetyl group (17d VS. 17f as printed)),inhibition at 0.2 µM [12]
"O=c1[nH]cc(F)c(=O)[nH]1 [5-Fluorouracil, reference compound]",26.47 ± 0.16 µM,15.1 ± 1.28 µM,12.2 ± 0.68 µM,,,,,,,,,,,,,,
"COc1ccc(S(=O)(=O)N(CCBr)c2cc(OC)c(OC)c(OC)c2)cc1 [Compound 16, N-(2-bromoethyl)-4-methoxy-N-(3,4,5-trimethoxyphenyl)benzenesulfonamide]",> 20 µM,> 20 µM,> 20 µM,116 to 118 °C,,,,,,,,,,,,,
"COc1ccc(S(=O)(=O)N(CCSC(=S)N2CCN(C)CC2)c2cc(OC)c(OC)c(OC)c2)cc1 [Compound 17a, 2-((4-Methoxy-N-(3,4,5-trimethoxyphenyl)phenyl)sulfonamido)ethyl-4-methylpiperazine-1-carbodithioate]",0.73 ± 0.16 µM,0.32 ± 0.08 µM,0.57 ± 0.07 µM,,> 64 µM,more pronounced depolymerisation effects,potently inhibited the cell viability,increased the expression levels of H3K9me1 and H3K9me2,concentration-dependently inhibited migration; also recorded: significantly inhibited the migration,42.97%,effectively inhibited the tumour growth in vivo,no apparent toxicity of organs,,,,,
"CCN1CCN(C(=S)SCCN(c2cc(OC)c(OC)c(OC)c2)S(=O)(=O)c2ccc(OC)cc2)CC1 [Compound 17b, 2-((4-Methoxy-N-(3,4,5-trimethoxyphenyl)phenyl)sulfonamido)ethyl-4-ethylpiperazine-1-carbodithioate]",2.35 ± 0.7 µM,1.37 ± 0.16 µM,1.03 ± 0.28 µM,150 to 152 °C,> 64 µM,more pronounced depolymerisation effects,,,,,,,over 8 fold,2.13 µM,0.127 µM,,
"COc1ccc(S(=O)(=O)N(CCSC(=S)N2CCN(CCO)CC2)c2cc(OC)c(OC)c(OC)c2)cc1 [Compound 17c, 2-((4-Methoxy-N-(3,4,5-trimethoxyphenyl)phenyl)sulfonamido)ethyl-4–(2-hydroxyethyl)piperazine-1-carbodithioate]",10.8 ± 1.01 µM,7.09 ± 1.33 µM,9.17 ± 2.18 µM,146 to 148 °C,,,,,,,,,,,,,
"COc1ccc(S(=O)(=O)N(CCSC(=S)N2CCN(C(C)=O)CC2)c2cc(OC)c(OC)c(OC)c2)cc1 [Compound 17d, 2-((4-Methoxy-N-(3,4,5-trimethoxyphenyl)phenyl)sulfonamido)ethyl-4-acetylpiperazine-1-carbodithioate]",5.06 ± 0.68 µM,1.58 ± 1.02 µM,3.29 ± 0.84 µM,152 to 154 °C,,,,,,,,,,1.78 µM,> 0.2 µM,over 3 fold,46%
"COc1ccc(S(=O)(=O)N(CCSC(=S)N2CCN(c3ccc(F)cc3)CC2)c2cc(OC)c(OC)c(OC)c2)cc1 [Compound 17e, 2-((4-Methoxy-N-(3,4,5-trimethoxyphenyl)phenyl)sulfonamido)ethyl-4–(4-fluorophenyl)piperazine-1-carbodithioate]",6.17 ± 1.05 µM,9.18 ± 1.32 µM,7.57 ± 0.96 µM,166 to 168 °C,,,,,,,,,,,,,
"COc1ccc(S(=O)(=O)N(CCSC(=S)N2CCN(C(=O)OC(C)(C)C)CC2)c2cc(OC)c(OC)c(OC)c2)cc1 [Compound 17f, Tert-butyl-4-(((2-((4-methoxy-N-(3,4,5-trimethoxyphenyl)phenyl)sulfonamido)ethyl)thio)carbonothioyl)piperazine-1-carboxylate]",4.46 ± 1.38 µM,2.32 ± 1.63 µM,6.67 ± 1.25 µM,162 to 164 °C,,moderately depolymerised interphase microtubules,,,,,,,,3.07 µM,> 0.2 µM,,35.7%
